Assay results published in patent US20200002665A1 (Heliae Development, LLC, priority 2016, published 2020).
Like-named read-outs stand apart in the source and are kept apart here.

Assays:
[1] = tested on: Schizochytrium limacinum; settings: pH 6.5
Excerpt: The heterotrophic cultures received aeration at a rate of 1 Liter per minute, and an initial batch of 80 g glycerol/L. In a first treatment, the culture was supplied with an initial batch of 20 g/L monosodium glutamate (“Glutamate” treatment), and the culture pH was controlled at a set point of 6.5 by a pH auxostat feed containing 1% HCl. […] Samples were taken daily to measure the cell dry weight, nitrogen concentration, and total protein. Results are show in FIGS. 30-33.

[2] = tested on: Chlorella (HS26)
Description: Cultures of Chlorella (HS26) were inoculated at 0.3 g/L in glass column bioreactors at a volume of 700 mL of BG-11 culture media and maintained at a temperature of 27° C. The mixotrophic cultures received aeration at a rate of 1 Liter per minute, an initial batch of 30 g glucose/L, and were supplied 270 micromoles of light using LED lights (LumiGrow, Inc., Emeryville, Calif.). In a first treatment, the culture was supplied with an initial batch of 3 g/L NaNO3 (“Nitrate” treatment), and the culture pH was controlled at a set point of 6.5 by a pH auxostat feed containing 0.50% HCl. In a second treatment, the culture was supplied with an initial batch of 3 g/L NaNO3 (“Nitrates” treatment), and the culture pH was controlled at a set point of 7.5 by a pH auxostat feed containing 0.50% HCl. […] Samples were taken daily to measure the cell dry weight, nitrogen concentration, and total protein.

[3] = tested on: Chlorella cultures; settings: 1 g N/L of NH4; mixotrophic, acetic acid as organic carbon source; FIG. 11
Excerpt: The Chlorella cultures productivity using either ammonium (NH4) or nitrates (NO3) as the nitrogen source in mixotrophic culture conditions (i.e., supply of light, supply of acetic acid as the organic carbon source) were then compared. The cultures received NH4 at a concentration of 0.13 g N/L, 0.25 g N/L, 0.5 g N/L, or 1 g N/L for the ammonium treatments. The cultures received NO3 at a concentration of 0.25 g N/L or 1 g N/L for the nitrate treatments. Samples were taken to measure cell dry weight at 0, 39, 86, and 161.5 hours.

[4] = tested on: Chlorella (HS26); settings: for final day (day 4) cell dry weight: FIG. 16
Description: Cultures of Chlorella (HS26) were inoculated at 0.3 g/L in glass column bioreactors at a volume of 700 mL of BG-11 culture media and maintained at a temperature of 27° C. The mixotrophic cultures received an initial batch of 1 g/L NH4Cl, aeration at a rate of 1 Liter per minute, an initial batch of 40 g glucose/L, and were supplied 270 micromoles of light using LED lights (LumiGrow, Inc., Emeryville, Calif.). Treatments were conducted at culture medium pH values of 6.5, 7.0, 7.3, 7.5, 7.8, 8.0, and 8.5. The culture medium pH was controlled with a pH auxostat supplying a titrate of 0.5% NH4OH and 0.75% HCl at the designated set points. Samples were taken daily to measure the cell dry weight, nitrogen concentration, and total protein. Results are show in FIGS. 13-17.

[5] = tested on: Chlorella (HS26); settings: for total protein content: FIG. 29; for growth (cell dry weight over time): FIG. 26
Description: Cultures of Chlorella (HS26) were inoculated at 0.3 g/L in glass column bioreactors at a volume of 700 mL of BG-11 culture media and maintained at a temperature of 27° C. The mixotrophic cultures received aeration at a rate of 1 Liter per minute, an initial batch of 30 g glucose/L, and were supplied 270 micromoles of light using LED lights (LumiGrow, Inc., Emeryville, Calif.). In a first treatment, the culture was supplied with an initial batch of 3 g/L NaNO3 (“Nitrate” treatment), and the culture pH was controlled at a set point of 7.0 by a pH auxostat feed containing 0.50% HCl. In a second treatment, the culture was supplied with an initial batch of 3 g/L NaNO3 (“Nitrates” treatment), and the culture pH was controlled at a set point of 8.0 by a pH auxostat feed containing 0.50% HCl. […] Samples were taken daily to measure the cell dry weight, nitrogen concentration, and total protein.

[6] = tested on: Chlorella (HS26); settings: pH 7.0
Description: Cultures of Chlorella (HS26) were inoculated at 0.3 g/L in glass column bioreactors at a volume of 700 mL of BG-11 culture media and maintained at a temperature of 27° C. The mixotrophic cultures received aeration at a rate of 1 Liter per minute, an initial batch of 30 g glucose/L, and were supplied 270 micromoles of light using LED lights (LumiGrow, Inc., Emeryville, Calif.). In a first treatment, the culture was supplied with an initial batch of 3 g/L NaNO3 (“Nitrate” treatment), and the culture pH was controlled at a set point of 7.0 by a pH auxostat feed containing 0.75% HCl. […] Samples were taken daily to measure the cell dry weight, nitrogen concentration, and total protein.

[7] = tested on: Chlorella (HS26) cells; test: pH drift of cultures suspended in different nitrogen sources (Example 1); type: cell-based; settings: after 24 hours, compared to a control; light, shaking 100 RPM; FIG. 10
Description: The Chlorella cultures were supplied with light, and shaking from a shaker table at 100 RPM. The pH drift of each culture was measured after 24 hours and compared to a control.

SMILES | growth (cell dry weight over time) ([1]; 1.0 g/L NH4Cl, 10% NH4OH feed, heterotrophic, glycerol, FIG. 30) | increase in protein yield ([1]; over the Glutamate treatment, FIG. 33) | growth (cell dry weight over time) ([2]; Ammonia pH 6.5 treatment, among Ammonia and Nitrate treatments at pH 6.5 and 7.5, FIG. 22) | total protein content ([2]; Ammonia treatments pH 6.5 and 7.5 versus Nitrate treatments, FIG. 25) | growth and productivity (cell dry weight) [3] | total protein on the final day (day 4) ([4]; culture pH 6.5 to 8.5, particularly above 7.5, FIG. 17) | accumulated protein (total protein content) ([4]; culture pH above 7.5, FIG. 15) | final day (day 4) cell dry weight ([4]; culture pH above 7.5) | growth (cell dry weight over time) ([4]; culture pH above 7.5, initial 1 g/L NH4Cl, 0.5% NH4OH titrant, FIG. 13) | final day (day 4) cell dry weight ([4]; culture pH of 7.5 and below) | total protein content ([5]; Ammonia culture grown at the higher pH (8.0)) | growth (cell dry weight over time) ([5]; Ammonia pH 7.0 treatment) | growth (cell dry weight over time) ([5]; Ammonia pH 8.0 treatment) | total protein content ([5]; Ammonia treatments pH 7.0 and 8.0 versus Nitrate treatments) | growth (cell dry weight over time) ([6]; 1.0 g/L NH4Cl, 0.5% NH4OH feed, versus Nitrate treatment, FIG. 18) | increase in protein ([6]; compared to the Nitrate treatment, FIG. 21) | pH drift of culture [7]
N [Ammonia, ammonia] | higher resulting growth than the Glutamate treatment | 20% | greatest amount of growth | more protein than the Nitrate treatments | suffered | increased as the culture pH increased | increase in accumulated protein | decreased as the culture pH increased | impaired growth | substantially similar | highest resulting protein | highest resulting growth | impaired growth | more total protein than the Nitrate treatments | better growth than the Nitrate treatment | 15% | –
N.N.O=S(=O)(O)O [ammonium sulfate] | – | – | – | – | – | – | – | – | – | – | – | – | – | – | – | – | decreased in culture pH
O=[N+]([O-])[O-].[Na+] [sodium nitrate, reference compound] | – | – | – | – | – | – | – | – | – | – | – | – | – | – | – | – | increased in culture pH
